# From patent US20230321012A1 (priority 2021, published 2023)
# Where “and” joins values, the source holds several entries; their conditions need not be identical. Equal values may be shown once.
# Assays:
# [1] = Water solubility, bioavailability and Biopharmaceutics Classification System class; assay type: physicochemical
# Text: Interim data for the pharmacokinetic (PK) behavior of both agents in human subjects has been generated.
# [2] = Clinical plasma pharmacokinetics of oral DFMO (NCT03536728); assay type: in vivo; details: human
# Text: Clinical Trial Outline. […] All solid tumor types are eligible for the trial. […] DFMO was delivered orally twice daily in gel capsules.
# [3] = MALDI-FTICR imaging quantitation of DFMO in whole-body sections of Th-MYCN mice; assay type: in vivo, mouse; details: for concentration at 96 h: male, Th-MYCN, mouse
# Protocol: Male Th-MYCN mice, approximately 5-6 weeks of age, with spontaneous neuroblastoma tumor development commenced treatment according to Table 6.1 when tumors were approximately 5 mm in size. […] Time point: three treatments, cull 24 hours after last treatment in the morning.
# Sample Preparation. Animals were euthanized on the morning of the 4th day, after three days of treatment and shaved, and then the carcasses were frozen. Tissues stored at −80° C. were placed inside the cryostat. The temperature of the cryostat was maintained around −20° C. and −40° C. 20-am tissue sections in the sagittal plane going through the left eye were obtained for each carcass. Tissue sections were mounted directly on indium tin oxide (ITO) slides.
# Tissue sections on ITO slides were placed in a desiccator for 15 minutes before matrix deposition. An image of the slides was then acquired with a scanner to synchronize positions of the tissue sections with the target of the laser.
# Dilution series of the test items were prepared in water from the stock solutions. […] A spot of pure solvent was added as a negative control. Slides were then placed in a desiccator for 15 minutes before MALDI matrix deposition. The control liver tissue consisted of a liver homogenate spiked with an olanzapine standard at 40 g/g of tissue. Sections of the liver homogenate were prepared and added on each ITO slide in order to monitor the signal of the FTICR through the different acquisitions and thus validate the comparison between slides.
# For AMXT 1501, 2,5-dihydroxybenzoic acid (DHB) at 40 mg/ml in 1:1 MeOH/H2O with 1% trifluoroacetic acid (TFA) and 25 nM of ^13C4-AMXT 1501 was sprayed on the samples with an automatic sprayer (TM-Sprayer, HTX-Imaging).
# The mass spectrometry imaging (MSI) acquisitions were performed using the parameters in Table 6.2 with a data reduction parameter set at 95%. MSI data were acquired and analyzed with FlexImaging 4.1 (Bruker Daltonics), Data Analysis 4.0 (Bruker Daltonics) and Multimaging™ 1.2.2 (ImaBioTech).
# Intensity scales representing the molecular signal were adjusted for each image to discriminate the noise from the molecular signal but also to give the best visualization of the signal across the sections. […] Convolution step was performed on the original images using a normalized uniform kernel, which averages the values around a position. The kernel size was manually optimized for the analysis, minimizing the background noise. Based on the MSI data set on the tissue sections and the dilution series, the quantitation of the test items was performed with the IS approach. A correlation between the calibration curve and the signal obtained on the tissues was performed in order to determine the concentration of the test items per histological structure in g/g of tissue and μM.
# NCI 60-cell line panel = details: used up to 5 mM, any cell line tested; cited from earlier work
# spermine = assay: MALDI-FTICR imaging quantitation of PD marker spermine in whole-body sections of Th-MYCN mice; assay type: in vivo, mouse; details: for Quantitation of spermine in the whole-body section: Th-MYCN mice, one value per animal
# Protocol: (§1) The lower limit of detection based on the calibration curve using labeled spermidine was 0.80 μg/g, while for spermine it was 1.10 μg/g.
# spermidine = assay: MALDI-FTICR imaging quantitation of PD marker spermidine in whole-body sections of Th-MYCN mice; assay type: in vivo, mouse; details: for Quantitation of spermidine in the whole-body section: Th-MYCN mice, one value per animal
# Protocol: as §1
# [4] = COMBO (1% DFMO + AMXT 1501 2.5 mg/kg SC), mice 284, 286, 96 h, 2.5 mg/kg
# [5] = DFMO alone 1% in drinking water, mice 049, 082, 96 h
# [6] = raw determination, individual Th-MYCN mice, 96 h
# [7] = raw determination, treatment group average, 96 h
smiles,measurement,setting,value
"NCCCC(N)(C(=O)O)C(F)F (centres unmarked) [DFMO, difluoromethylornithine]",water solubility,[1],high water solubility
same,AUC,"[2]; 500 mg/day split BID, Day 28, n=14",11400 ng·h/mL
same,Cmax,"[2]; 7-day repeat dosing of 1000 mg split BID, Cohort 3, n=6",4440 ng/mL
same,DFMO in Intestine wall,"[3]; COMBO (1% DFMO + AMXT 1501 2.5 mg/kg SC), mice 284, 286, 96 h",6156 µg/g
same,DFMO in Cardiac blood,[3]; [4],20.9 µg/g
same,DFMO in Eye,[3]; [4],49.3 µg/g
same,DFMO in Intestine contents,[3]; [4],8702 µg/g and 11264 µg/g
same,DFMO in Liver,[3]; [4],33.0 µg/g
same,DFMO in Lung,[3]; [4],43.1 µg/g
same,DFMO in Myocardium,[3]; [4],26.2 µg/g
same,DFMO in Cardiac blood,[3]; [5],16.5 µg/g
same,DFMO in Eye,[3]; [5],28.8 µg/g
same,DFMO in Intestine contents,[3]; [5],3487 µg/g and 2267 µg/g
same,DFMO in Kidney,[3]; [5],133 µg/g
same,DFMO in Liver,[3]; [5],28.5 µg/g
same,DFMO in Lung,[3]; [5],24.8 µg/g
same,DFMO concentration in tumor,[3]; DFMO only treatment group,35 μg/g and 192 μM
same,tumor DFMO levels,[3]; MYCN mice after overnight drinking of 1% DFMO orally,165 to 192 µM
same,DFMO concentration in tumor,[3]; combination treatment group,30 μg/g and 165 μM
same,tumor DFMO concentration versus Ki,[3]; combination treatment group,4.2 times
same,concentration at 96 h,"[3]; brown fat, oral, 40 mg/day, DFMO in brown fat",~25000 ng/g
same,concentration at 96 h,"[3]; brown fat, oral, 1 % in drinking water, DFMO in Brown fat, DFMO alone 1% in drinking water, mice 049, 082, 96 h",22600 ng/g
same,concentration at 96 h,"[3]; brown fat, sc, 2.5 mg/kg, DFMO in Brown fat, COMBO (1% DFMO + AMXT 1501 2.5 mg/kg SC), mice 284, 286, 96 h",27500 ng/g
same,concentration at 96 h,"[3]; cardiac blood, oral, 40 mg/day, DFMO in cardiac blood, combination and single administration regimens",16000 to 35000 ng/g
same,concentration at 96 h,"[3]; cardiac blood, oral, 1 % in drinking water, DFMO in Cardiac blood, DFMO alone 1% in drinking water, mice 049, 082, 96 h",27800 ng/g
same,concentration at 96 h,"[3]; cardiac blood, sc, 2.5 mg/kg, DFMO in Cardiac blood, COMBO (1% DFMO + AMXT 1501 2.5 mg/kg SC), mice 284, 286, 96 h",35400 ng/g
same,concentration at 96 h,"[3]; eye, oral, 1 % in drinking water, DFMO in Eye, DFMO alone 1% in drinking water, mice 049, 082, 96 h",33000 ng/g
same,concentration at 96 h,"[3]; eye, sc, 2.5 mg/kg, DFMO in Eye, COMBO (1% DFMO + AMXT 1501 2.5 mg/kg SC), mice 284, 286, 96 h",92100 ng/g
same,concentration at 96 h,"[3]; intestine wall, oral, 1 % in drinking water, DFMO in Intestine wall, DFMO alone 1% in drinking water, mice 049, 082, 96 h",803000 ng/g
same,concentration at 96 h,"[3]; kidney, oral, 1 % in drinking water, DFMO in Kidney, DFMO alone 1% in drinking water, mice 049, 082, 96 h",77600 ng/g
same,concentration at 96 h,"[3]; liver, oral, 1 % in drinking water, DFMO in Liver, DFMO alone 1% in drinking water, mice 049, 082, 96 h",36100 ng/g
same,concentration at 96 h,"[3]; liver, sc, 2.5 mg/kg, DFMO in Liver, COMBO (1% DFMO + AMXT 1501 2.5 mg/kg SC), mice 284, 286, 96 h",44700 ng/g
same,concentration at 96 h,"[3]; lung, oral, 1 % in drinking water, DFMO in Lung, DFMO alone 1% in drinking water, mice 049, 082, 96 h",48700 ng/g
same,concentration at 96 h,"[3]; lung, sc, 2.5 mg/kg, DFMO in Lung, COMBO (1% DFMO + AMXT 1501 2.5 mg/kg SC), mice 284, 286, 96 h",64700 ng/g
same,concentration at 96 h,"[3]; myocardium, oral, 1 % in drinking water, DFMO in Myocardium, DFMO alone 1% in drinking water, mice 049, 082, 96 h",10000 ng/g
same,concentration at 96 h,"[3]; myocardium, sc, 2.5 mg/kg, DFMO in Myocardium, COMBO (1% DFMO + AMXT 1501 2.5 mg/kg SC), mice 284, 286, 96 h",28500 ng/g
same,concentration at 96 h,"[3]; oral, 40 mg/day, DFMO in eye, kidney, liver, lung, testis and thymus, range from testis to eye, both treatments",14000 to 92000 ng/g
same,concentration at 96 h,"[3]; pancreas, sc, 2.5 mg/kg, DFMO in Pancreas, COMBO (1% DFMO + AMXT 1501 2.5 mg/kg SC), mice 284, 286, 96 h",83000 ng/g
same,concentration at 96 h,"[3]; spleen, sc, 2.5 mg/kg, DFMO in Spleen, COMBO (1% DFMO + AMXT 1501 2.5 mg/kg SC), mice 284, 286, 96 h",83600 ng/g
same,concentration at 96 h,"[3]; stomach contents, sc, 2.5 mg/kg, DFMO in Stomach contents, COMBO (1% DFMO + AMXT 1501 2.5 mg/kg SC), mice 284, 286, 96 h",111000 ng/g
same,concentration at 96 h,"[3]; stomach wall, oral, 1 % in drinking water, DFMO in Stomach wall, DFMO alone 1% in drinking water, mice 049, 082, 96 h",216000 ng/g
same,concentration at 96 h,"[3]; stomach wall, sc, 2.5 mg/kg, DFMO in Stomach wall, COMBO (1% DFMO + AMXT 1501 2.5 mg/kg SC), mice 284, 286, 96 h",44500 ng/g
same,concentration at 96 h,"[3]; testis, oral, 1 % in drinking water, DFMO in Testis, DFMO alone 1% in drinking water, mice 049, 082, 96 h",14500 ng/g
same,concentration at 96 h,"[3]; testis, sc, 2.5 mg/kg, DFMO in Testis, COMBO (1% DFMO + AMXT 1501 2.5 mg/kg SC), mice 284, 286, 96 h",48200 ng/g
same,concentration at 96 h,"[3]; thymus, oral, 1 % in drinking water, DFMO in Thymus, DFMO alone 1% in drinking water, mice 049, 082, 96 h",20900 ng/g
same,concentration at 96 h,"[3]; thymus, sc, 2.5 mg/kg, DFMO in Thymus, COMBO (1% DFMO + AMXT 1501 2.5 mg/kg SC), mice 284, 286, 96 h",26700 ng/g
same,concentration at 96 h,"[3]; tumor, oral, 1 % in drinking water, DFMO in Tumor, DFMO alone 1% in drinking water, mice 049, 082, 96 h",35100 ng/g
same,concentration at 96 h,"[3]; tumor, sc, 2.5 mg/kg, DFMO in Tumor, COMBO (1% DFMO + AMXT 1501 2.5 mg/kg SC), mice 284, 286, 96 h",30400 ng/g
same,growth inhibitory effect,NCI 60-cell line panel,no growth inhibitory effect
same,Quantitation of spermine in the whole-body section,spermine; Eye,16.03 µM and 8.07 µM
same,Quantitation of spermine in the whole-body section,spermine; Intestine contents,2.46 µM
same,Quantitation of spermine in the whole-body section,spermine; Intestine wall,3.44 µM
same,Quantitation of spermine in the whole-body section,spermine; Kidney,4.69 µM
same,Quantitation of spermine in the whole-body section,spermine; Liver,2.14 µM
same,Quantitation of spermine in the whole-body section,spermine; Lung,4.78 µM and 7.91 µM
same,Quantitation of spermine in the whole-body section,spermine; Myocardium,BLOQ
same,Quantitation of spermine in the whole-body section,spermine; Stomach contents,0.00 µM
same,Quantitation of spermine in the whole-body section,spermine; Stomach wall,BLOQ
same,Quantitation of spermine in the whole-body section,spermine; Testis,7.40 µM
same,Quantitation of spermine in the whole-body section,spermine; Thymas,BLOQ
same,Quantitation of spermine in the whole-body section,spermine; Tumor,6.03 µM
same,spermine in lung,spermine; group average,6.35 µM
same,"spermine level in tumor, comparison of groups","spermine; mouse, in vivo",highest levels
same,"Spermine concentration in tumor, Value",spermine; [6],BLOD and 6.03 μM
same,"Spermine concentration in tumor, Average",spermine; [7],6.03 µM
same,spermine in eye,spermine; vehicle 17.6 μM,12 µM
same,Quantitation of spermidine in the whole-body section,spermidine; Brain,1.86 µM
same,Quantitation of spermidine in the whole-body section,spermidine; Brown fat,3.80 µM
same,Quantitation of spermidine in the whole-body section,spermidine; Cardiac blood,0.00 µM
same,Quantitation of spermidine in the whole-body section,spermidine; Eye,6.11 µM and 5.24 µM
same,Quantitation of spermidine in the whole-body section,spermidine; Intestine contents,43.17 µM and 5.61 µM
same,Quantitation of spermidine in the whole-body section,spermidine; Intestine wall,4.56 µM
same,Quantitation of spermidine in the whole-body section,spermidine; Kidney,1.35 µM
same,Quantitation of spermidine in the whole-body section,spermidine; Liver,6.67 µM
same,Quantitation of spermidine in the whole-body section,spermidine; Lung,4.53 µM and 2.64 µM
same,Quantitation of spermidine in the whole-body section,spermidine; Stomach wall,1.13 µM
same,Quantitation of spermidine in the whole-body section,spermidine; Testis,1.97 µM
same,Quantitation of spermidine in the whole-body section,spermidine; Thymus,6.00 µM
same,Quantitation of spermidine in the whole-body section,spermidine; Tumor,5.39 µM
same,"spermidine level in tumor, comparison of groups","spermidine; mouse, in vivo",highest levels
same,"Spermidine concentration in tumor, Values",spermidine; [6],BLOD and 5.39 μM
same,"Spermidine concentration in tumor, Average",spermidine; [7],5.39 µM
same,spermidine in eye,spermidine; vehicle 9.14 μM,6 µM
